Results published in patent US20200131132A1, “FARNESOID X RECEPTOR AGONISTS AND USES THEREOF” (Metacrine, Inc., priority 2017, published 2020).
pEC50: −log10 of the molar value.

molecular target: T1, hFXR (Homo sapiens, UniProt Q96RI1); assay: In Vitro FXR Assay (TK); type: cell-based; conditions: CV-1 cells transfected with hFXR, hRXR, TK-ECRE-luc and pCMX-YFP; compounds incubated 18 hrs; luminescence
T1 construct: expressed in transfected cells; host or cells: CV-1 cells
T1 sequence (Q96RI1 1-486): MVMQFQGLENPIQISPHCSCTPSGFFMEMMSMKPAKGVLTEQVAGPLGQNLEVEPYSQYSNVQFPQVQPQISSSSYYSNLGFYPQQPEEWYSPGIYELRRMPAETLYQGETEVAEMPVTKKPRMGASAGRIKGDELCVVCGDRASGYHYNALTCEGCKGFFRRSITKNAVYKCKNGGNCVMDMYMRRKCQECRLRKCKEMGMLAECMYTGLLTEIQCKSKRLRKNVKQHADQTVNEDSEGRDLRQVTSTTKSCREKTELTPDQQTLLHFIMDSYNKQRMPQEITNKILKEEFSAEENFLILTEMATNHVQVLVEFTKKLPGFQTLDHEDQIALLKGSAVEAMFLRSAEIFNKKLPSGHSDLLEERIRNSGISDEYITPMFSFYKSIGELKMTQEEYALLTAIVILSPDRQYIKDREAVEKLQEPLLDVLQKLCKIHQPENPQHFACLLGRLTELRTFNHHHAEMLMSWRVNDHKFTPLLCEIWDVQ
T1 sequence (P19793 1-462 partner): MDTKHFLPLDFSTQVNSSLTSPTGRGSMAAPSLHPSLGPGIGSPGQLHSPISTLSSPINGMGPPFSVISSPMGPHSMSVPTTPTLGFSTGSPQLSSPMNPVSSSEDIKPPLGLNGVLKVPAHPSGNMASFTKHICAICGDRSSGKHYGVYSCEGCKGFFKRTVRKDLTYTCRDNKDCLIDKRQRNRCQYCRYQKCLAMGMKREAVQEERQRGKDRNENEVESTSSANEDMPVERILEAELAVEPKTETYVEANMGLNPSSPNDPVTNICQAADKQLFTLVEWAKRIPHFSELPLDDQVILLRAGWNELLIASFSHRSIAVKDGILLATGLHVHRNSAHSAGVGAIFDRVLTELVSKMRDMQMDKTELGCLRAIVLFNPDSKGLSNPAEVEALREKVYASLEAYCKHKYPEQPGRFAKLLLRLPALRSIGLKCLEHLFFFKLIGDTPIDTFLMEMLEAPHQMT
Experimental: CV-1 cells were seeded at a density of 2,000,000 cells in a T175 flask with DMEM+10% charcoal double-stripped FBS and incubated at 37° C. in 5% CO2 for 18 h (O/N).
After 18 h of incubation, the medium in the T175 flask was changed with fresh DMEM+10% charcoal super-stripped serum. In a polypropylene tube, 2500 μL OptiMEM (Life Technologies, Cat #31985-062) was combined with expression plasmids for hFXR, hRXR, TK-ECRE-luc and pCMX-YFP. The tube was then briefly vortexed and incubated at room temperature for 5 minutes. Transfection reagent (X-tremeGENE HP from Roche, Cat #06 366 236 001) was added to the OptiMEM/plasmid mixture vortexed and incubated at room temperature for 20 minutes. Following incubation, the transfection reagent/DNA mixture complex was added to cells in the T175 flask and the cells were incubated at 37° C. in 5% CO2 for 18 h (O/N).
Compounds were serially diluted in DMSO and added to transfected CV-1 cells. The cells were then incubated for 18 hrs. The next day cells were lysed and examined for luminescence.

With `COc1ccc(-c2ccc(CN(C(=O)CC(C)(C)C)c3nccc4cc(OC5CN(C(=O)OC(C)(C)C)C5)ccc34)cc2)cc1C` [Compound 8.07, tert-Butyl 3-((1-(N-((4′-methoxy-3′-methyl-[1,1′-biphenyl]-4-yl)methyl)-3,3-dimethylbutanamido)isoquinolin-6-yl)oxy)azetidine-1-carboxylate] as the compound, how does the pEC50 read?
The pEC50 was under 5.00.

How did the pEC50 turn out when `COc1ccc(-c2ccc(CN(C(=O)CC(C)(C)C)c3nccc4cc(N5CCCCC5)ccc34)cc2)cc1C` [Compound 6.07, N-((4′-Methoxy-3′-methyl-[1,1′-biphenyl]-4-yl)methyl)-3,3-dimethyl-N-(6-(piperidin-1-yl)isoquinolin-1-yl)butanamide] was run?
Its pEC50 is at least 6.00.

How did the pEC50 turn out when `COc1ccc(-c2ccc(CN(C(=O)CC(C)(C)C)c3nccc4cc(OC(C)C)ccc34)cc2)cc1C` [Compound 11.01, N-(6-Isopropoxyisoquinolin-1-yl)-N-((4′-methoxy-3′-methyl-[1,1′-biphenyl]-4-yl)methyl)-3,3-dimethylbutanamide] was run?
The pEC50 was at least 6.00.

How did the pEC50 turn out when `COc1ccc(-c2ccc(CN(C(=O)CC(C)(C)C)c3nccc4ccc(Br)cc34)cc2)cc1C` [Compound 4.06, N-(7-Bromoisoquinolin-1-yl)-N-((4′-methoxy-3′-methyl-[1,1′-biphenyl]-4-yl)methyl)-3,3-dimethylbutanamide] was run?
Its pEC50 is at least 6.00.

How did the pEC50 turn out when `COc1ccc(-c2ccc(CN(C(=O)CC(C)(C)C)c3ccnc4ccccc34)cc2)cc1C` [Compound 4.08, N-((4′-Methoxy-3′-methyl-[1,1′-biphenyl]-4-yl)methyl)-3,3-dimethyl-N-(quinolin-4-yl)butanamide] was run?
Its pEC50 is under 5.00.

How did the pEC50 turn out when `COc1ccc(-c2ccc(CN(C(=O)CC(C)(C)C)c3nccc4cc(Br)ccc34)cc2)cc1C` [Compound 4, N-(6-Bromoisoquinolin-1-yl)-N-((4′-methoxy-3′-methyl-[1,1′-biphenyl]-4-yl)methyl)-3,3-dimethylbutanamide] was run?
The pEC50 was at least 6.00.

`COc1ccc(-c2ccc(CN(C(=O)CC(C)(C)C)c3cncc4ccccc34)cc2)cc1C` [Compound 5, N-(Isoquinolin-4-yl)-N-((4′-methoxy-3′-methyl-[1,1′-biphenyl]-4-yl)methyl)-3,3-dimethylbutanamide] was tested. Which pEC50 did it give?
Its pEC50 is 5.00 to 6.00.

`COc1ccc(-c2ccc(CN(C(=O)CC(C)(C)C)c3nccc4cc(OCCCCO)ccc34)cc2)cc1C` [Compound 8.1, N-(6-(4-Hydroxybutoxy)isoquinolin-1-yl)-N-((4′-methoxy-3′-methyl-[1,1′-biphenyl]-4-yl)methyl)-3,3-dimethylbutanamide] was tested. Which pEC50 did it give?
The pEC50 was at least 6.00.

How did the pEC50 turn out when `COc1ccc(-c2ccc(CN(C(=O)CC(C)(C)C)c3nccc4ccccc34)cc2)cc1C` [Compound 20, N-(Isoquinolin-1-yl)-N-((4′-methoxy-3′-methyl-[1,1′-biphenyl]-4-yl)methyl)-3,3-dimethylbutanamide] was run?
The pEC50 was at least 6.00.

`COc1ccc(-c2ccc(CN(C(=O)CC(C)(C)C)c3nccc4cc(N(C)C)ccc34)cc2)cc1C` [Compound 6.1, N-(6-(Dimethylamino)isoquinolin-1-yl)-N-((4′-methoxy-3′-methyl-[1,1′-biphenyl]-4-yl)methyl)-3,3-dimethylbutanamide] was tested. Which pEC50 did it give?
Its pEC50 is at least 6.00.

`COc1ccc(-c2ccc(CN(C(=O)CC(C)(C)C)c3nccc4cc(C(C)O)ccc34)cc2)cc1C` (stereo not shown) [Compound 26, N-(6-(1-Hydroxyethyl)isoquinolin-1-yl)-N-((4′-methoxy-3′-methyl-[1,1′-biphenyl]-4-yl)methyl)-3,3-dimethylbutanamide] was tested. Which pEC50 did it give?
Its pEC50 is at least 6.00.

`COc1ccc(-c2ccc(CN(C(=O)CC(C)(C)C)c3nccc4cc(CC#N)ccc34)cc2)cc1C` [Compound 27, N-(6-(Cyanomethyl)isoquinolin-1-yl)-N-((4′-methoxy-3′-methyl-[1,1′-biphenyl]-4-yl)methyl)-3,3-dimethylbutanamide] was tested. Which pEC50 did it give?
The pEC50 was at least 6.00.

With `COCCOCc1ccc2c(N(Cc3ccc(-c4ccc(OC)c(C)c4)cc3)C(=O)CC(C)(C)C)nccc2c1` [Compound 9.04, N-((4′-Methoxy-3′-methyl-[1,1′-biphenyl]-4-yl)methyl)-N-(6-((2-methoxyethoxy)methyl)isoquinolin-1-yl)-3,3-dimethylbutanamide] as the compound, how does the pEC50 read?
The pEC50 was at least 6.00.

With `COc1ccc(-c2ccc(CN(C(=O)CC(C)(C)C)c3nccc4cc(N(C)CCO)ccc34)cc2)cc1C` [Compound 6.01, N-(6-((2-Hydroxyethyl)(methyl)amino)iso-quinolin-1-yl)-N-((4′-methoxy-3′-methyl-[1,1′-biphenyl]-4-yl)methyl)-3,3-dimethylbutanamide] as the compound, how does the pEC50 read?
Its pEC50 is at least 6.00.

`COc1ccc(-c2ccc(CN(C(=O)CC(C)(C)C)c3nccc4cc(CO)ccc34)cc2)cc1C` [Compound 2.01, N-(6-(Hydroxymethyl)isoquinolin-1-yl)-N-((4′-methoxy-3′-methyl-[1,1′-biphenyl]-4-yl)methyl)-3,3-dimethylbutanamide] was tested. Which pEC50 did it give?
Its pEC50 is at least 6.00.

How did the pEC50 turn out when `COc1ccc(-c2ccc(CN(C(=O)CC(C)(C)C)c3nccc4cc(N5CC(CO)C5)ccc34)cc2)cc1C` [Compound 6.15, N-(6-(3-(Hydroxymethyl)azetidin-1-yl)isoquinolin-1-yl)-N-((4′-methoxy-3′-methyl-[1,1′-biphenyl]-4-yl)methyl)-3,3-dimethylbutanamide] was run?
The pEC50 was at least 6.00.

How did the pEC50 turn out when `CNC(=O)c1ccc2c(N(Cc3ccc(-c4ccc(OC)c(C)c4)cc3)C(=O)CC(C)(C)C)nccc2c1` [Compound 19.01, 1-(N-((4′-Methoxy-3′-methyl-[1,1′-biphenyl]-4-yl)methyl)-3,3-dimethylbutanamido)-N-methylisoquinoline-6-carboxamide] was run?
Its pEC50 is 5.00 to 6.00.

`COc1ccc(-c2ccc(CN(C(=O)CC(C)(C)C)c3nccc4cc(N5CCC(OC)C5)ccc34)cc2)cc1C` (stereo not shown) [Compound 6.19, N-((4′-Methoxy-3′-methyl-[1,1′-biphenyl]-4-yl)methyl)-N-(6-(3-methoxypyrrolidin-1-yl)isoquinolin-1-yl)-3,3-dimethylbutanamide] was tested. Which pEC50 did it give?
Its pEC50 is at least 6.00.

How did the pEC50 turn out when `COc1ccc(-c2ccc(CN(C(=O)CC(C)(C)C)c3ncnc4ccccc34)cc2)cc1C` [Compound 4.01, N-((4′-Methoxy-3′-methyl-[1,1′-biphenyl]-4-yl)methyl)-3,3-dimethyl-N-(quinazolin-4-yl)butanamide] was run?
Its pEC50 is 5.00 to 6.00.

With `CNc1ccc2c(N(Cc3ccc(-c4ccc(OC)c(C)c4)cc3)C(=O)CC(C)(C)C)nccc2c1` [Compound 6.11, N-((4′-Methoxy-3′-methyl-[1,1′-biphenyl]-4-yl)methyl)-3,3-dimethyl-N-(6-(methylamino)isoquinolin-1-yl)butanamide] as the compound, how does the pEC50 read?
Its pEC50 is at least 6.00.

With `COc1ccc(-c2ccc(CN(C(=O)CC(C)(C)C)c3nccc4cc(OCC(=O)N(C)C)ccc34)cc2)cc1C` [Compound 8.02, N-(6-(2-(Dimethylamino)-2-oxoethoxy)isoquinolin-1-yl)-N-((4′-methoxy-3′-methyl-[1,1′-biphenyl]-4-yl)methyl)-3,3-dimethylbutanamide] as the compound, how does the pEC50 read?
The pEC50 was at least 6.00.

With `COc1ccc(-c2ccc(CN(C(=O)CC(C)(C)C)c3nccc4cc(N5CCC5)ccc34)cc2)cc1C` [Compound 6.04, N-(6-(Azetidin-1-yl)isoquinolin-1-yl)-N-((4′-methoxy-3′-methyl-[1,1′-biphenyl]-4-yl)methyl)-3,3-dimethylbutanamide] as the compound, how does the pEC50 read?
Its pEC50 is at least 6.00.

With `COc1ccc2c(N(Cc3ccc(-c4ccc(OC)c(C)c4)cc3CO)C(=O)CC(C)(C)C)nccc2c1` [Compound 21, N-((3-(Hydroxymethyl)-4′-methoxy-3′-methyl-[1,1′-biphenyl]-4-yl)methyl)-N-(6-methoxyisoquinolin-1-yl)-3,3-dimethylbutanamide] as the compound, how does the pEC50 read?
The pEC50 was 5.00 to 6.00.

With `COc1ccc(-c2ccc(CN(C(=O)CC(C)(C)C)c3nccc4cc(OCC(=O)O)ccc34)cc2)cc1C` [Compound 29, 2-((1-(N-((4′-Methoxy-3′-methyl-[1,1′-biphenyl]-4-yl)methyl)-3,3-dimethylbutanamido)isoquinolin-6-yl)oxy)acetic acid] as the compound, how does the pEC50 read?
Its pEC50 is under 5.00.

How did the pEC50 turn out when `COc1ccc(-c2ccc(CN(C(=O)CC(C)(C)C)c3nccc4ccc(C#N)cc34)cc2)cc1C` [Compound 13, N-(7-Cyanoisoquinolin-1-yl)-N-((4′-methoxy-3′-methyl-[1,1′-biphenyl]-4-yl)methyl)-3,3-dimethylbutanamide] was run?
The pEC50 was 5.00 to 6.00.
